According to BindingDB's records for doi:10.1016/j.ejmech.2018.01.053 (University of Southern California, 2018):

What was measured:
[1] = Inhibition of BRAF V600E mutant in human A375 cells assessed as reduction in cell proliferation incubated for 96 hrs by MTT assay
[2] = Inhibition of BCR-ABL (unknown origin) expressed in mouse BA/F3 cells assessed as reduction in cell proliferation incubated for 48 hrs by MTT assay

Compound | IC50 [1] | IC50 [2]
CC(C)n1nc(C#Cc2cccc3cc(-c4ccc(CN5CCN(C)CC5)cc4)ncc23)c2c(N)ncnc21 | > 10000 nM | 354 nM
CC(C)n1nc(C#Cc2cccc(NC(=O)c3cccc(C(F)(F)F)c3)c2)c2c(N)ncnc21 | 97 nM | 
CCn1nc(C#Cc2cccc3cc(-c4cccc(C(F)(F)F)c4)ncc23)c2c(N)ncnc21 | > 10000 nM | 1110 nM
CC(C)n1nc(C#Cc2cccc3cc(-c4cccc(C(F)(F)F)c4)ncc23)c2c(N)ncnc21 | > 10000 nM | 942 nM
Cc1ccc2cc(-c3cccc(C(F)(F)F)c3)ncc2c1C#Cc1nn(C(C)C)c2ncnc(N)c12 | 2300 nM | 435 nM
